Data from US20230157952A1, “METHOD FOR IMPROVING THE STABILITY OF A PHARMACEUTICAL COMPOSITION COMPRISING A HIGH PENETRATION DRUG, AND THE PHARMACEUTICAL COMPOSITION OBTAINED THEREFROM” (Techfields Inc., priority 2020, published 2023).

Tests used:
[1] = Effect of concentration on the stability of the solution (purity over time); conditions: in water at 25° C.
[2] = Effect of temperature (and pH) on the stability of the solution (purity); type: physicochemical; conditions: 7% solution in water

CCN(CC)CCOC(=O)Cc1sc(-c2ccccc2)nc1-c1ccc(Cl)cc1.Cl [2-(diethylamino)ethyl 4-(4-chlorophenyl)-2-phenyl-5-thiazoleacetate•HCl]
Purity at Day 3 ([1]; 0.01 wt %): 83.4%
Purity at Day 7 ([1]; 0.01 wt %): 74.2%
Purity at Day 14 ([1]; 0.01 wt %): 58.4%
Purity at Day 21 ([1]; 0.01 wt %): 46.5%
Purity at Day 28 ([1]; 0.01 wt %): 37.5%
Purity at hr 0 ([1]; 0.01 wt %): 98.4%
Purity at Day 3 ([1]; 0.1 wt %): 96.7%
Purity at Day 7 ([1]; 0.1 wt %): 95.6%
Purity at Day 14 ([1]; 0.1 wt %): 91.5%
Purity at Day 21 ([1]; 0.1 wt %): 84.7%
Purity at Day 28 ([1]; 0.1 wt %): 80.5%
Purity at hr 0 ([1]; 0.1 wt %): 98.5%
Purity at Day 3 ([1]; 1 wt %): 96.6%
Purity at Day 7 ([1]; 1 wt %): 95.5%
Purity at Day 14 ([1]; 1 wt %): 92.9%
Purity at Day 21 ([1]; 1 wt %): 90.9%
Purity at Day 28 ([1]; 1 wt %): 89.1%
Purity at hr 0 ([1]; 1 wt %): 98.7%
Purity at Day 3 ([1]; 3 wt %): 96.5%
Purity at Day 7 ([1]; 3 wt %): 96.2%
Purity at Day 14 ([1]; 3 wt %): 94.8%
Purity at Day 21 ([1]; 3 wt %): 94.0%
Purity at Day 28 ([1]; 3 wt %): 92.7%
Purity at hr 0 ([1]; 3 wt %): 98.9%
Purity at Day 3 ([1]; 5 wt %): 98.4%
Purity at Day 7 ([1]; 5 wt %): 98.0%
Purity at Day 14 ([1]; 5 wt %): 97.8%
Purity at Day 21 ([1]; 5 wt %): 96.6%
Purity at Day 28 ([1]; 5 wt %): 95.4%
Purity at hr 0 ([1]; 5 wt %): 98.9%
Purity at Day 3 ([1]; 7 wt %): 98.6%
Purity at Day 7 ([1]; 7 wt %): 98.2%
Purity at Day 14 ([1]; 7 wt %): 98.2%
Purity at Day 21 ([1]; 7 wt %): 97.7%
Purity at Day 28 ([1]; 7 wt %): 97.5%
Purity at hr 0 ([1]; 7 wt %): 99.1%
Purity at Day 3 ([1]; 8 wt %): 98.7%
Purity at Day 7 ([1]; 8 wt %): 98.3%
Purity at Day 14 ([1]; 8 wt %): 97.9%
Purity at Day 21 ([1]; 8 wt %): 97.9%
Purity at Day 28 ([1]; 8 wt %): 97.6%
Purity at hr 0 ([1]; 8 wt %): 99.1%
Purity at Day 3 ([1]; 10 wt %): 98.8%
Purity at Day 7 ([1]; 10 wt %): 98.5%
Purity at Day 14 ([1]; 10 wt %): 98.3%
Purity at Day 21 ([1]; 10 wt %): 98.1%
Purity at Day 28 ([1]; 10 wt %): 97.5%
Purity at hr 0 ([1]; 10 wt %): 99.2%
Purity at Day 3 ([1]; 15 wt %): 98.7%
Purity at Day 7 ([1]; 15 wt %): 98.6%
Purity at Day 14 ([1]; 15 wt %): 98.4%
Purity at Day 21 ([1]; 15 wt %): 98.1%
Purity at Day 28 ([1]; 15 wt %): 97.8%
Purity at hr 0 ([1]; 15 wt %): 99.1%
Purity at Day 3 ([1]; 20 wt %): 98.8%
Purity at Day 7 ([1]; 20 wt %): 98.5%
Purity at Day 14 ([1]; 20 wt %): 98.2%
Purity at Day 21 ([1]; 20 wt %): 98.1%
Purity at Day 28 ([1]; 20 wt %): 97.7%
Purity at hr 0 ([1]; 20 wt %): 99.0%
Purity at Day 3 ([1]; 30 wt %): 98.7%
Purity at Day 7 ([1]; 30 wt %): 98.5%
Purity at Day 14 ([1]; 30 wt %): 98.3%
Purity at Day 21 ([1]; 30 wt %): 98.0%
Purity at Day 28 ([1]; 30 wt %): 97.8%
Purity at hr 0 ([1]; 30 wt %): 99.1%
Purity at Day 3 ([1]; 50 wt %): 98.8%
Purity at Day 7 ([1]; 50 wt %): 98.5%
Purity at Day 14 ([1]; 50 wt %): 98.2%
Purity at Day 21 ([1]; 50 wt %): 98.9%
Purity at Day 28 ([1]; 50 wt %): 97.8%
Purity at hr 0 ([1]; 50 wt %): 99.1%
Stability when the concentration is 0.1% or lower [1]: not stable
Stability of the solution at a temperature higher than 40° C. and a pH lower than 3 or greater than 6 [2]: not stable
